Source: US5488060A, “Substituted thiadiazoles, compositions containing them and their use as antimicrobial and marine antifouling agents” (The Dow Chemical Company, priority 1994, dated 1996)
In brackets after ≈: the same amount, converted by molar mass. Where two headings read alike, the source gives them in different places.

What was measured:
Type in all cases: cell-based
[1] = tested on: Penicillium chrysogenum (Pc); assay: Minimum inhibitory concentration (MIC) in malt yeast agar, Penicillium chrysogenum
Summary of the method: (§1)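 Plates of pH 5.5 malt yeast agar carried test compound dispersed from a one percent acetone–water solution, final 500 to zero ppm. After diluted slant-culture suspensions were applied, plates were kept at 30 °C and examined at 72 h for fungi, 48 h for yeast.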

Aspergillus niger (An) = assay: Minimum inhibitory concentration (MIC) in malt yeast agar, Aspergillus niger; conditions: pH 5.5; malt yeast agar, 30° C., 72 hours for fungi; read-out: Minimum Inhibitory Concentration, An
Summary of the method: as §1

[2] = tested on: Aureobasidium pullulan (Ap); assay: Minimum inhibitory concentration (MIC) in malt yeast agar, Aureobasidium pullulan
Summary of the method: as §1

Candida albicans (Ca) = assay: Minimum inhibitory concentration (MIC) in malt yeast agar, Candida albicans; conditions: pH 5.5; malt yeast agar, 30° C., 48 hours for yeast; read-out: Minimum Inhibitory Concentration, Ca
Summary of the method: as §1

[3] = tested on: Saccharomyces cerevisiae (Sc); assay: Minimum inhibitory concentration (MIC) in malt yeast agar, Saccharomyces cerevisiae; conditions: pH 5.5, malt yeast agar, 30° C., 48 hours for yeast, read-out: Minimum Inhibitory Concentration, SC
Summary of the method: as §1

[4] = tested on: Enterobacter aerogenes (Ea); assay: Minimum inhibitory concentration (MIC) in nutrient agar, Enterobacter aerogenes; conditions: Klebsiella aerogenes
Summary of the method: (§2)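 Agar dilution; nutrient agar at pH 6.8 (neutral) and pH 8.2 (alkaline, tricine-buffered). Compound from 1% acetone/water stock, final 500–1.0 ppm. Inoculum 10^8 CFU/mL via Steer's replicator. 30° C, 48 h; growth/no growth read.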

[5] = tested on: Salmonella choleraesuis (Se); assay: Minimum inhibitory concentration (MIC) in nutrient agar, Salmonella choleraesuis; conditions: Salmonella enterica
Summary of the method: as §2

Fusarium oxysporum (Fo) = assay: Minimum inhibitory concentration (MIC) in malt yeast agar, Fusarium oxysporum
Summary of the method: as §1

[6] = tested on: Pseudomonas aeruginosa (PRD-10); assay: Minimum inhibitory concentration (MIC) in nutrient agar, Pseudomonas aeruginosa PRD-10
Summary of the method: as §2

[7] = tested on: Pseudomonas aeruginosa (Pa); assay: Minimum inhibitory concentration (MIC) in nutrient agar, Pseudomonas aeruginosa; conditions: 30° C., 48 hours, read-out: Minimum Inhibitory Concentration, Pa
Summary of the method: as §2

Proteus vulgaris (Pv) = assay: Minimum inhibitory concentration (MIC) in nutrient agar, Proteus vulgaris
Summary of the method: as §2

[8] = tested on: Klebsiella pneumoniae (Kp); assay: Minimum inhibitory concentration (MIC) in nutrient agar, Klebsiella pneumoniae
Summary of the method: as §2

Trichoderma viride (Tv) = assay: Minimum inhibitory concentration (MIC) in malt yeast agar, Trichoderma viride; conditions: 72 h, pH 5.5, read-out: Minimum Inhibitory Concentration, Tv
Summary of the method: as §1

Bacillus subtilis (Bs) = assay: Minimum inhibitory concentration (MIC) in nutrient agar, Bacillus subtilis
Summary of the method: as §2

Escherichia coli (Ec) = assay: Minimum inhibitory concentration (MIC) in nutrient agar, Escherichia coli
Summary of the method: as §2

[9] = tested on: Staphylococcus aureus (Sa); assay: Minimum inhibitory concentration (MIC) in nutrient agar, Staphylococcus aureus
Summary of the method: as §2

[10] = 48 h, pH 6.8, read-out: Minimum Inhibitory Concentration, Ea
[11] = 48 h, pH 6.8, read-out: Minimum Inhibitory Concentration, SC
[12] = 48 h, pH 6.8, read-out: Minimum Inhibitory Concentration, PRD
[13] = 48 h, pH 6.8, read-out: Minimum Inhibitory Concentration, Pv
[14] = pH 6.8, nutrient agar, 30° C., 48 hours, read-out: Minimum Inhibitory Concentration, Kp
[15] = pH 6.8, nutrient agar, 30° C., 48 hours, read-out: Minimum Inhibitory Concentration, Bs
[16] = 48 h, pH 6.8, read-out: Minimum Inhibitory Concentration, Ec

| SMILES | MIC (Aspergillus niger (An)) | MIC (Candida albicans (Ca)) | MIC [3] | MIC [4, 10] | MIC [5, 11] | MIC [6, 12] | MIC ([7]; pH 6.8, nutrient agar) | MIC ([7]; pH 8.2, nutrient agar) | MIC (Proteus vulgaris (Pv); [13]) | MIC [8, 14] | MIC (Trichoderma viride (Tv)) | MIC (Bacillus subtilis (Bs); [15]) | MIC (Escherichia coli (Ec); [16]) | further results |
| --- | --- | --- | --- | --- | --- | --- | --- | --- | --- | --- | --- | --- | --- | --- |
| CS(=O)(=O)c1ccc(-c2nsnc2SC#N)cc1 [Example XI, 4-(4-Methylsulfonylphenyl)-3-thiocyanato-l,2,5-thiadiazole] | 500 µg/mL (≈ 1680 µM) | 500 µg/mL (≈ 1680 µM) | 250 µg/mL (≈ 841 µM) | 500 µg/mL (≈ 1680 µM) | 500 µg/mL (≈ 1680 µM) | 500 µg/mL (≈ 1680 µM) | 500 µg/mL (≈ 1680 µM) | 500 µg/mL (≈ 1680 µM) | 500 µg/mL (≈ 1680 µM) | 250 µg/mL (≈ 841 µM) | 250 µg/mL (≈ 841 µM) | 25 µg/mL (≈ 84.1 µM) | 500 µg/mL (≈ 1680 µM) | MIC ([1]; pH 5.5, malt yeast agar, 30° C., 72 hours for fungi, read-out: Minimum Inhibitory Concentration, PC): 500 µg/mL (≈ 1680 µM); MIC ([2]; pH 5.5, read-out: Minimum Inhibitory Concentration, Ap): 50 µg/mL (≈ 168 µM); MIC ([4]; 48 h, pH 8.2, read-out: Minimum Inhibitory Concentration, Ea): 500 µg/mL (≈ 1680 µM); MIC ([5]; 48 h, pH 8.2, read-out: Minimum Inhibitory Concentration, SC): 500 µg/mL (≈ 1680 µM); MIC (Fusarium oxysporum (Fo); 72 h, pH 5.5, read-out: Minimum Inhibitory Concentration, Fo): 100 µg/mL (≈ 336 µM); MIC ([6]; 48 h, pH 8.2, read-out: Minimum Inhibitory Concentration, PRD): 500 µg/mL (≈ 1680 µM); MIC (Proteus vulgaris (Pv); 48 h, pH 8.2, read-out: Minimum Inhibitory Concentration, Pv): 500 µg/mL (≈ 1680 µM); MIC ([8]; 48 h, pH 8.2, read-out: Minimum Inhibitory Concentration, Kp): 500 µg/mL (≈ 1680 µM); MIC (Bacillus subtilis (Bs); 48 h, pH 8.2, read-out: Minimum Inhibitory Concentration, Bs): 500 µg/mL (≈ 1680 µM); MIC (Escherichia coli (Ec); 48 h, pH 8.2, read-out: Minimum Inhibitory Concentration, Ec): 500 µg/mL (≈ 1680 µM); MIC ([9]; 48 h, pH 8.2, read-out: Minimum Inhibitory Concentration, Sa): 500 µg/mL (≈ 1680 µM); MIC ([9]; pH 6.8, nutrient agar, 30° C., 48 hours, read-out: Minimum Inhibitory Concentration, Sa): 100 µg/mL (≈ 336 µM) |
| N#CSc1nsnc1-c1ccc([N+](=O)[O-])cc1 [Example XIII, 4-(4-nitrophenyl)-3-thiocyanato-1,2,5-thiadiazole] | < 10 µg/mL | < 10 µg/mL | < 10 µg/mL | 500 µg/mL (≈ 1890 µM) | 500 µg/mL (≈ 1890 µM) | 500 µg/mL (≈ 1890 µM) | 500 µg/mL (≈ 1890 µM) | > 100 µg/mL | 500 µg/mL (≈ 1890 µM) | 100 µg/mL (≈ 378 µM) | < 10 µg/mL | 25 µg/mL (≈ 94.6 µM) | 500 µg/mL (≈ 1890 µM) | MIC ([1]; 72 h, pH 5.5, read-out: Minimum Inhibitory Concentration, PC): < 10 µg/mL; MIC ([2]; pH 5.5, malt yeast agar, 30° C., read-out: Minimum Inhibitory Concentration, Ap): < 10 µg/mL; MIC ([4]; pH 8.2, nutrient agar, 30° C., 48 hours, read-out: Minimum Inhibitory Concentration, Ea): > 100 µg/mL; MIC ([5]; pH 8.2, nutrient agar, 30° C., 48 hours, read-out: Minimum Inhibitory Concentration, SC): > 100 µg/mL; MIC (Fusarium oxysporum (Fo); pH 5.5, malt yeast agar, 30° C., 72 hours for fungi, read-out: Minimum Inhibitory Concentration, Fo): < 10 µg/mL; MIC ([6]; pH 8.2, nutrient agar, 30° C., 48 hours, read-out: Minimum Inhibitory Concentration, PRD): > 100 µg/mL; MIC (Proteus vulgaris (Pv); pH 8.2, nutrient agar, 30° C., 48 hours, read-out: Minimum Inhibitory Concentration, Pv): > 100 µg/mL; MIC ([8]; pH 8.2, nutrient agar, 30° C., 48 hours, read-out: Minimum Inhibitory Concentration, Kp): > 100 µg/mL; MIC (Bacillus subtilis (Bs); pH 8.2, nutrient agar, 30° C., 48 hours, read-out: Minimum Inhibitory Concentration, Bs): > 100 µg/mL; MIC (Escherichia coli (Ec); pH 8.2, nutrient agar, 30° C., 48 hours, read-out: Minimum Inhibitory Concentration, Ec): > 100 µg/mL; MIC ([9]; 48 h, pH 6.8, read-out: Minimum Inhibitory Concentration, Sa): 50 µg/mL (≈ 189 µM); MIC ([9]; pH 8.2, nutrient agar, 30° C., 48 hours, read-out: Minimum Inhibitory Concentration, Sa): > 100 µg/mL |
